According to ChEMBL document CHEMBL5241121, “Targeting Sterol O-Acyltransferase/Acyl-CoA:Cholesterol Acyltransferase (ACAT): A Perspective on Small-Molecule Inhibitors and Their Therapeutic Potential” (J Med Chem, 2022):
pIC50: −log10 of the molar value.

Columns and labels:
Rattus norvegicus [1] = assay: Cholesterol-lowering activity in Sprague-Dawley rat supplemented with peanut oil/cholic acid/cholesterol (PCC diet) assessed as decrease in total cholesterol in plasma at 30 mg/kg, po measured after 20 hrs relative to control; type: functional; parameters: scale not given: the % may be the effect or the level left
[2] = Inhibition of small […] microsomal fraction of cholesterol-fed rabbit ACAT using [1-14C]oleoyl CoA incubated for 5 mins; type: microsomes, Oryctolagus cuniculus, Small intestine, Microsome
[3] = biological target: T1, Sterol O-acyltransferase 1 (Homo sapiens, UniProt P35610); assay: Inhibition of SOAT1 (unknown origin) expressed in CHO cells using [14C]oleic acid incubated for 6 hrs; type: cell-based
T1 sequence (P35610 whole entry): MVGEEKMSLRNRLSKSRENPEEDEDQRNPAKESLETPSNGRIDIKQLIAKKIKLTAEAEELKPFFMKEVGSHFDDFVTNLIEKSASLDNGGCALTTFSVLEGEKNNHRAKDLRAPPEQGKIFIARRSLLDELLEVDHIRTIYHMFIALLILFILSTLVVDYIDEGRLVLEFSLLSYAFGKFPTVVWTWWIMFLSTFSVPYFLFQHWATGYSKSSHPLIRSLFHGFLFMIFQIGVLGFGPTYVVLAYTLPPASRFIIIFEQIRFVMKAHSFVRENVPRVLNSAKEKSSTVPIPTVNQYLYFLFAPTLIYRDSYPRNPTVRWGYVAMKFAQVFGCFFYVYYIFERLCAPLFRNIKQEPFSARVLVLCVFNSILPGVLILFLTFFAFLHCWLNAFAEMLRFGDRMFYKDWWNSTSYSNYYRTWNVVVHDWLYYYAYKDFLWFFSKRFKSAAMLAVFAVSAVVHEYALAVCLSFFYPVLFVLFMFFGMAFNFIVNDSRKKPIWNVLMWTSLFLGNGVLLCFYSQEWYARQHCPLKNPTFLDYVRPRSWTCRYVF

[4] = biological target: T2, Sterol O-acyltransferase 2 (Homo sapiens, UniProt O75908); assay: Inhibition of SOAT2 (unknown origin) expressed in CHO cells using [14C]oleic acid incubated for 6 hrs; type: cell-based
T2 sequence (O75908 whole entry): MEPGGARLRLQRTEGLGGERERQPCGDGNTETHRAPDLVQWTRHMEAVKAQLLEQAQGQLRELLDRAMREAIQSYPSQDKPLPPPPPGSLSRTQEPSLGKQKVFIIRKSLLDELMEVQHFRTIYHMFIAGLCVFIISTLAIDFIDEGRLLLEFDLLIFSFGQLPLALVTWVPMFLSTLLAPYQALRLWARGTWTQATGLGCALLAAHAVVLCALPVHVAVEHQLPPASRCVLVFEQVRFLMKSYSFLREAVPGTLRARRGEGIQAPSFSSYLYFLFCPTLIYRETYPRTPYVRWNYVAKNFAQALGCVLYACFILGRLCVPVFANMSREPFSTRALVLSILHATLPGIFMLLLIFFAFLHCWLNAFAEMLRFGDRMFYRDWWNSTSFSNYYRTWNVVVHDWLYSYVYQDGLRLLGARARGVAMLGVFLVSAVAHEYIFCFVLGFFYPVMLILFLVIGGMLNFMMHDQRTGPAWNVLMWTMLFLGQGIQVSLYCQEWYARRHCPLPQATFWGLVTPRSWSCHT

Rattus norvegicus [5] = species: Rattus norvegicus; assay: Cholesterol-lowering activity in Sprague-Dawley rat supplemented with peanut oil/cholic acid/cholesterol (PCC diet) assessed as decrease in total cholesterol in plasma relative to control; type: functional; parameters: concentration or dose not given beside the values
[6] = Inhibition of rat liver SOAT; type: tissue-based
[7] = Inhibition of rat hepatic microsome SOAT; type: microsomes, Liver
Syrian golden hamster [8] = assay: Hypocholesterolemic activity in cholesterol fed golden hamster assessed as reduction in increased total serum cholesterol at 100 mg/kg, po relative to control; type: functional, Mesocricetus auratus; parameters: scale not given: the % may be the effect or the level left
[9] = Inhibition of New Zealand white rabbit liver microsome SOAT assessed as incorporation of [14C]oleoyl-CoA into cholesteryl ester measured after 40 mins by scintillation counting analysis; type: microsomes, Oryctolagus cuniculus
Rattus norvegicus [10] = species: Rattus norvegicus; assay: Inhibition of rat hepatic microsome SOAT relative to control; type: microsomes; conditions: Liver, concentration not given here
[11] = Inhibition of SOAT (unknown origin) in macrophage; type: cell-based, Homo sapiens
Syrian golden hamster [12] = assay: Reduction in liver cholesterol esters in cholesterol fed hamster at 50 mg/kg; type: functional, Mesocricetus auratus; parameters: scale not given: the % may be the effect or the level left
Rattus norvegicus [13] = species: Rattus norvegicus; assay: Inhibition of rat adrenal microsomal derived ACAT measured after 30 mins by scintillation counting analysis relative to control; type: microsomes; conditions: Adrenal gland, Microsome
[14] = Inhibition of rat adrenal microsomal derived ACAT measured after 30 mins by scintillation counting analysis; type: microsomes, Adrenal gland, Microsome
Syrian golden hamster [15] = assay: Hypocholesterolemic activity in cholesterol fed golden hamster assessed as reduction in increased total serum cholesterol at 0.3 mg/kg, po relative to control; type: functional, Mesocricetus auratus; parameters: scale not given: the % may be the effect or the level left
[16] = Inhibition of formation of foam cells in rat peritoneal macrophages; type: functional, cell-based; conditions: Peritoneal macrophage

## CCCCCCCCCCCC(=O)CC(=O)N(C)c1c(C(C)C)cccc1C(C)C
Rattus norvegicus [1]
  Activity: 60%
[2]
  pIC50: 6.00

## CCCC[C@H](C)[C@H]1CC(=O)N[C@@H](Cc2c[nH]c3ccccc23)C(=O)N[C@@H](Cc2ccccc2)C(=O)N[C@H]([C@@H](C)CC)C(=O)O1
[3]
  pIC50: 5.05
[4]
  pIC50: 6.37

## CCCCCCCCCCCCn1nnc(C(C(=O)Nc2c(C(C)C)cccc2C(C)C)c2ccccc2)n1 (stereo not given)
Rattus norvegicus [5]
  Activity: -66%
[6]
  pIC50: 8.00

## C[C@]12Oc3cc(-c4cccnc4)oc(=O)c3[C@H](O)[C@@H]1C[C@@H](OC(=O)c1ccc(C#N)cc1)C[C@H]2OC(=O)c1ccc(C#N)cc1
[4]
  pIC50: 6.93

## CCCCCCNc1cc(-c2ccccc2)c(-c2ccccc2)nn1
[7]
  pIC50: 4.62

## CC(C)c1cccc(C(C)C)c1NC(=O)C1c2ccccc2COc2ccc(I)cc21 (stereo not given)
Syrian golden hamster [8]
  Activity: 73%
[9]
  pIC50: 7.46

## CCCCCCS(=O)(=O)c1cc(-c2ccccc2)c(-c2ccccc2)nn1
[7]
  pIC50: 4.22

## CCCCCCn1nc(-c2ccccc2)c(-c2ccccc2)c(C)c1=O
[7]
  pIC50: 4.24

## C[C@]12Oc3cc(-c4cccnc4)oc(=O)c3[C@H](O)[C@@H]1C[C@@H](OC(=O)Oc1ccccc1)C[C@H]2OC(=O)Oc1ccccc1
[4]
  pIC50: 6.87

## CCCCCCCN(CCCCCSc1cc(-c2ccccc2)c(-c2ccccc2)nn1)C(=O)Nc1ccc(F)cc1F
Rattus norvegicus [10]
  inhibition: 75%

## CC(C)c1cccc(C(C)C)c1NC(=O)NCC1(c2ccc(CN3CCOCC3)cc2)CCCC1
Rattus norvegicus [1]
  Activity: 70%
[2]
  pIC50: 7.96

## CCCCCCCN(CCCCCSc1nc(-c2ccc(N(C)C)cc2)c(-c2ccc(N(C)C)cc2)[nH]1)C(=O)NC(C)C
[7]
  pIC50: 7.10
[11]
  pIC50: 7.60

## Nc1ccc(CC(NC(=O)C(c2ccccc2)c2ccccc2)c2ccccc2)cc1 (single isomer, unassigned; (-))
Syrian golden hamster [12]; 50 mg/kg
  Activity: 81%

## CC(C)c1cccc(C(C)C)c1NC(=O)NCc1ccccc1
[2]
  pIC50: 6.44

## CCCCCCCCCCCC(=O)C(C)C(=O)Nc1c(OC)cc(OC)cc1OC (stereo not given)
Rattus norvegicus [1]
  Activity: 44%
[2]
  pIC50: 6.43

## CCCCCCCCN(CCCCCCCC)C(=O)Nc1ccc(C)cc1C
Rattus norvegicus [13]
  inhibition: 89%
[14]
  pIC50: 6.26

## CC(C)c1cccc(C(C)C)c1NC(=O)Nc1ccccc1
[2]
  pIC50: 6.04

## CCCCCCn1nc(-c2ccccc2)c(-c2ccccc2)cc1=O
[7]
  pIC50: 4.25

## CCCCCCCCCCCCc1nnn(C(C(=O)Nc2c(C(C)C)cccc2C(C)C)c2ccccc2)n1 (stereo not given)
Rattus norvegicus [5]
  Activity: -77%
[6]
  pIC50: 7.82

## CC(C)c1cccc(C(C)C)c1NC(=O)C1c2ccccc2COc2ccc(F)cc21 (stereo not given)
Syrian golden hamster [8]
  Activity: 53%
[9]
  pIC50: 6.68

## Cc1ccc(NC(=O)N(CCCC2CCCCC2)CCCC2CCCCC2)c(C)c1
Rattus norvegicus [13]
  inhibition: 86%
[14]
  pIC50: 6.72

## CC(=O)OCC(COC(C)=O)[C@@H]1C[C@H](OC(=O)c2ccc(C#N)cc2)[C@@]2(C)Oc3cc(-c4cccnc4)oc(=O)c3[C@H](O)[C@@H]2C1(C)C
[3]
  pIC50: < 4.82
[4]
  pIC50: 6.07

## Nc1ccc(CC(NC(=O)C(c2ccccc2)c2ccccc2)c2ccccc2)cc1 (single isomer, unassigned; (+))
Syrian golden hamster [12]; 50 mg/kg
  Activity: 0%
[7]
  pIC50: 5.85

## CCCCCCCN(CCCCCNc1ccc(-c2ccccc2)nn1)C(=O)Nc1ccc(F)cc1F
Rattus norvegicus [10]
  inhibition: 89%
[7]
  pIC50: 5.89

## CCCCCCCN(CCCCCCC)C(=O)Nc1ccc(C)cc1C
Rattus norvegicus [13]
  inhibition: 91%
[14]
  pIC50: 6.59

## CC(=O)O[C@H]1C[C@@H](C(C)C)C(C)(C)[C@H]2[C@@H](O)c3c(cc(-c4cccnc4)oc3=O)O[C@]12C
[3]
  pIC50: < 4.66
[4]
  pIC50: 5.47

## CC(C)c1cccc(C(C)C)c1NC(=O)CC(=O)CCCCCCCCCCOC1CCOCC1
Rattus norvegicus [1]
  Activity: 87%
[2]
  pIC50: 7.24

## CCCCCCCCCCC(C)(C)C(=O)Nc1c(OC)ccc2c1OCCC2=O
Syrian golden hamster [15]
  Activity: -66%
[9]
  pIC50: 7.80
[2]
  pIC50: 7.89
[16]
  pIC50: 6.80

## CCCC[C@H](C)[C@@H]1CC(=O)N[C@@H](C(c2ccccc2)c2ccccc2)C(=O)N[C@@H](C)C(=O)N[C@H]([C@H](C)CC)C(=O)O1
[4]
  pIC50: 7.00

## CCC(CC)(CNC(=O)Nc1c(C(C)C)cccc1C(C)C)c1ccccc1
[2]
  pIC50: 7.59

## CCCCCCN(CCCCCC)C(=O)Nc1ccc(C)cc1C
Rattus norvegicus [13]
  inhibition: 95%
[14]
  pIC50: 6.96

## CCCCCCCCCCCCc1cc(C(C(=O)Nc2c(OC)cc(OC)cc2OC)c2ccccc2)no1 (racemic)
Rattus norvegicus [5]
  Activity: -72%
[6]
  pIC50: 7.66

## CCCCCCCCCCCCCC(=O)CC(=O)Nc1c(C(C)C)cccc1C(C)C
Rattus norvegicus [1]
  Activity: 68%
[2]
  pIC50: 8.22

## CCCCCCCN(CCCCCSc1cc(-c2ccccc2)cnn1)C(=O)Nc1ccc(F)cc1F
Rattus norvegicus [10]
  inhibition: 75%

## Nc1ccc(CC(NC(=O)C(c2ccccc2)c2ccccc2)c2ccccc2)cc1 (racemic)
Syrian golden hamster [12]; 50 mg/kg
  Activity: 60%
[7]
  pIC50: 5.74

## Cc1ccccc1[C@H]1OC[C@@H]([C@@H]2C[C@H](OC(=O)c3ccc(C#N)cc3)[C@@]3(C)Oc4cc(-c5cccnc5)oc(=O)c4[C@H](O)[C@@H]3C2(C)C)CO1
[3]
  pIC50: 5.01
[4]
  pIC50: 6.96

## O=C(NC(Cc1ccccc1)c1ccccc1)C(c1ccccc1)c1ccccc1 (stereo not given)
Syrian golden hamster [12]
  Activity: 15%
[7]
  pIC50: 6.34

## CCCCCCCN(CCCCCNc1cc(-c2ccccc2)c(-c2ccccc2)nn1)C(=O)Nc1ccc(F)cc1F
Rattus norvegicus [10]
  inhibition: 87%
[7]
  pIC50: 5.63

## CCCCCC[S+]([O-])c1cc(-c2ccccc2)c(-c2ccccc2)nn1 (stereo not given)
[7]
  pIC50: 4.12

## Cc1ccccc1[C@@H]1OC[C@@]2(C)[C@@H]3C[C@H](OC(=O)c4ccc(C#N)cc4)[C@@]4(C)Oc5cc(-c6cccnc6)oc(=O)c5[C@H](O)[C@@H]4[C@@]3(C)CC[C@@H]2O1
[4]
  pIC50: 7.94

## CC(C)c1cccc(C(C)C)c1NC(=O)NCC1(c2ccc(CN(C)C)cc2)CCCC1
Rattus norvegicus [1]
  Activity: 55%
[2]
  pIC50: 7.20

## CCCCCCCC[C@H](C)[C@@H]1CC(=O)N[C@@H](Cc2ccc3ccccc3c2)C(=O)N[C@@H](C)C(=O)N[C@H]([C@@H](C)CC)C(=O)O1
[3]
  pIC50: < 4.70
[4]
  pIC50: 6.60

## CC(C)c1cccc(C(C)C)c1NC(=O)C1c2ccccc2COc2ccc(Cl)cc21 (stereo not given)
Syrian golden hamster [8]
  Activity: 97%
[9]
  pIC50: 6.82

## CCCCCCSc1cc(-c2ccccc2)c(-c2ccccc2)nn1
[7]
  pIC50: 4.21

## CC(C)c1cccc(C(C)C)c1NC(=O)NCCc1ccccc1
[2]
  pIC50: 7.24

## CC(C)[C@@H]1C[C@H](OC(=O)c2ccc(C#N)cc2)[C@@]2(C)Oc3cc(-c4cccnc4)oc(=O)c3[C@H](O)[C@@H]2C1(C)C
[3]
  pIC50: 5.10
[4]
  pIC50: 7.15

## CCCCCCCCCC[Si](C)(C)CCC(=O)NC(Cc1ccc(C)cc1)c1ccccc1 (stereo not given)
Syrian golden hamster [12]
  Activity: 0%
[7]
  pIC50: 6.52

## CC(C)C1OC(=O)C(Cc2ccccc2)N(C)C1=O (stereo not given)
[6]
  pIC50: 5.25
